Assay: solvent given as SMILES

Nc1ccccc1
Details | solvation free energy, 298 K [kcal/mol]
in CC(C)=O | -7.84
in CC(C)CC(C)(C)C | -5.2
in CCCCCC | -5.43
in CCCCCCC | -5.38
in CCCCCCCC | -4.84
in CCCCCCCCCCCCCCCC | -5.36
in CCCCCl | -6.67
in CCOC(C)=O | -7.49
in O | -5.77

Cc1ccccn1
Details | solvation free energy, 298 K [kcal/mol]
in CC(C)(C)O | -5.91
in CC(C)CC(C)(C)C | -4.69
in CC(C)CO | -6.19
in CC(C)O | -5.88
in CCC(C)O | -6
in CCOC(C)=O | -5.67
in O | -4.63

Clc1ccc(Cl)c(-c2ccccc2Cl)c1
Details | solvation free energy, 298 K [kcal/mol]
in CCCCCCCCC=CCCCCCCCC(=O)OCC(COC(=O)CCCCCCCC=CCCCCCCCC)OC(=O)CCCCCCCC=CCCCCCCCC | -9.75
in O | -2.37

CCCC(=O)CC(C)=O
Details | solvation free energy, 298 K [kcal/mol]
in O | -4.39

CCCC(=O)CC(=O)CCC
Details | solvation free energy, 298 K [kcal/mol]
in O | -4.33

O
Details | solvation free energy, 298 K [kcal/mol]
in BrC(Br)Br | -1.76
in BrC(Br)C(Br)Br | -1.63
in BrCCBr | -1.98
in C1CCCCC1 | -0.54
in C1COCCO1 | -4.37
in C=CCCCCCCC=C | -1.19
in C=CCCCCCCCCCCCCCC | -0.63
in CC(C)=O | -4.34
in CC(C)C | -0.64
in CC(C)C(C)C | -0.56
in CC(C)C(C)C(C)C | -0.49
in CC(C)CC(C)(C)C | -0.52
in CC(C)CC(C)C | -0.51
in CC(C)CCC(C)(C)C | -0.49
in CCC | -0.66
in CCC(C)(C)C | -0.51
in CCC(C)=O | -4.02
in CCC(C)C | -0.56
in CCC(C)CC | -0.59
in CCCC(C)C | -0.55
in CCCC(C)CC | -0.47
in CCCCC | -0.64
in CCCCC(=O)CC | -3.3
in CCCCCC | -0.67
in CCCCCCC | -0.72
in CCCCCCCC | -0.73
in CCCCCCCCC | -0.53
in CCCCCCCCCC | -0.48
in CCCCCCCCCCC | -0.47
in CCCCCCCCCCCC | -0.44
in CCCCCCCCCCCCC | -0.4
in CCCCCCCCCCCCCCCC | -0.42
in CCCCCCCCCCO | -3.98
in CCCCCCCCO | -4.15
in CCCCO | -4.5
in CCCCOCCO | -4.6
in CCCO | -4.76
in CCCOCC(C)O | -4.29
in CCO | -5.05
in CN(C)C=O | -5.55
in CNC(C)=O | -5.8
in CNC=O | -5.28
in CO | -5.59
in ClC(Cl)(Cl)Cl | -1.15
in ClC(Cl)=C(Cl)Cl | -1.15
in NC=O | -5.67
in S=C=S | -1.01

CCOc1ccc(NC(C)=O)cc1
Details | solvation free energy, 298 K [kcal/mol]
in C1CCOC1 | -13.7
in CCCCCCCCO | -13.1
in CCCCCO | -13
in CCCCO | -13.2
in CCCO | -13.2
in CCO | -13.3
in CCOC(C)=O | -12.8
in CO | -13.6
in O | -10.9

CCCCCCCl
Details | solvation free energy, 298 K [kcal/mol]
in O | 0

CCCCC(CC)CO (stereo unspecified)
Details | solvation free energy, 298 K [kcal/mol]
in O | -3.96

O=C(O)CCc1ccccc1
Details | solvation free energy, 298 K [kcal/mol]
in O | -9

Cc1ccc2cc(C)ccc2c1
Details | solvation free energy, 298 K [kcal/mol]
in CCCCCCCCC=CCCCCCCCC(=O)OCC(COC(=O)CCCCCCCC=CCCCCCCCC)OC(=O)CCCCCCCC=CCCCCCCCC | -8.29
in CCCCCCCO | -8.28
in CCCCCCO | -8.36
in CCCCCO | -8.49
in CCCCO | -8.59
in CCO | -8.85
in O | -2.37

c1ccc2c(c1)CCCC2
Details | solvation free energy, 298 K [kcal/mol]
in CCC(C)=O | -7.43
in CCCCCCC | -7.03
in CCO | -6.29
in O=Cc1ccco1 | -7.02
in OCCO | -4.97
in OCCOCCO | -5.9
in OCCOCCOCCO | -6.07

Clc1c(Cl)c(Cl)c(Cl)c(Cl)c1Cl
Details | solvation free energy, 298 K [kcal/mol]
in C1CCOC1 | -11
in C1COCCO1 | -10.8
in CC(C)CC(C)(C)C | -10
in CC(C)CCO | -9.59
in CCCC(C)O | -9.45
in CCCCC(CC)CO | -9.86
in CCCCCC | -10.2
in CCCCCCC | -10.2
in CCCCCCCC | -10.3
in CCCCCCCCC=CCCCCCCCC(=O)OCC(COC(=O)CCCCCCCC=CCCCCCCCC)OC(=O)CCCCCCCC=CCCCCCCCC | -9.52
in CCCCCCCCCC | -10.3
in CCCCCCCCO | -9.78
in CCCCCl | -10.6
in CCCCOC(C)=O | -10.4
in CCCCOCCCC | -10.4
in CCOC(C)=O | -10.2
in COC(C)=O | -10.2

N#CCCOCCC#N
Details | solvation free energy, 298 K [kcal/mol]
in CCCCCCC | -7.82

C=CC=C
Details | solvation free energy, 298 K [kcal/mol]
in C1CCC2CCCCC2C1 | -2.17
in C1COCCO1 | -2.03
in C=Cc1ccccc1 | -2.36
in CC1COC(=O)O1 | -1.97
in CC#N | -2.15
in CC(=O)N(C)C | -2.56
in CC(C)(C)O | -2.07
in CC(C)=O | -2.74
in CC(C)CCO | -2.09
in CC(C)CO | -2.06
in CC(C)O | -2.09
in CCC(C)(C)O | -2.16
in CCC(C)CO | -2.06
in CCC(C)O | -2.07
in CCC(O)CC | -2.09
in CCCC(C)O | -2.07
in CCCCCCC | -2.67
in CCCCCCCCCCCCCCCC | -2.1
in CCCCCO | -2.11
in CCCCO | -2.11
in CCCO | -2.16
in CCOC(C)=O | -2.84
in CCOCC | -2.72
in CN1CCCC1=O | -2.36
in CN(C)C=O | -2.29
in CN(C)P(=O)(N(C)C)N(C)C | -2.46
in CO | -2.14
in COC(C)=O | -2.26
in COCCOCCOCCOC | -2.05
in CS(C)=O | -1.8
in Cc1ccc(C)cc1 | -2.45
in Cc1cccc(C)c1 | -2.48
in Cc1ccccc1C | -2.46
in ClCCl | -2.83
in Nc1ccccc1 | -2.06
in O | 0.6
in OCCCOCCCO | -1.73
in OCCO | -1.35
in OCc1ccccc1 | -1.95

CC(=O)OCCC(C)CCC=C(C)C (stereo unspecified)
Details | solvation free energy, 298 K [kcal/mol]
in O | -2.99

CCCCCCO[N+](=O)[O-]
Details | solvation free energy, 298 K [kcal/mol]
in O | -1.66

CCCOC
Details | solvation free energy, 298 K [kcal/mol]
in O | -1.66

CCNc1nc(Cl)nc(NC(C)(C)C#N)n1
Details | solvation free energy, 298 K [kcal/mol]
in O | -13.2

C=CC1CC=CCC1 (stereo unspecified)
Details | solvation free energy, 298 K [kcal/mol]
in CCCCCCCCCCCCCCCC | -4.94
in COCCO | -4.42
in CS(C)=O | -3.97
in O | 0.36

CCC1CO1 (stereo unspecified)
Details | solvation free energy, 298 K [kcal/mol]
in CC(C)O | -3.72
in COC(=O)OC | -4.11
in COC(C)=O | -4.16
in ClC(Cl)Cl | -4.9
in O | -2.93

CCCCOCCO
Details | solvation free energy, 298 K [kcal/mol]
in O | -6.25

CCCNCCC
Details | solvation free energy, 298 K [kcal/mol]
in O | -3.65

Oc1ccc(Br)cc1Br
Details | solvation free energy, 298 K [kcal/mol]
in O | -5.69

FCC(F)(F)F
Details | solvation free energy, 298 K [kcal/mol]
in CCCCCCCC(=O)OCC(COC(=O)CCCCCCC)OC(=O)CCCCCCC | -1.21
in CCCCCCCCC | -0.76
in CCCCCCCCO | -0.89
in CN1CCCC1=O | -1.96
in CN(C)C=O | -2.21
in O | 0.56

CCCOCCO
Details | solvation free energy, 298 K [kcal/mol]
in O | -6.4

ClCCCCCl
Details | solvation free energy, 298 K [kcal/mol]
in CC(C)=O | -6.56
in O | -2.32

Nc1ccc(N)c2c1C(=O)c1ccccc1C2=O
Details | solvation free energy, 298 K [kcal/mol]
in O | -11.8

CCCCCC(N)=O
Details | solvation free energy, 298 K [kcal/mol]
in O | -9.31

CCCl
Details | solvation free energy, 298 K [kcal/mol]
in CC(=O)N(C)C | -2.93
in CC(C)(C)O | -2.44
in CC(C)CCO | -2.43
in CC(C)CO | -2.43
in CC(C)O | -2.47
in CCC(C)(C)O | -2.5
in CCC(C)CO | -2.4
in CCC(C)O | -2.41
in CCC(O)CC | -2.41
in CCCC(C)O | -2.36
in CCCCCCCC(=O)OCC(COC(=O)CCCCCCC)OC(=O)CCCCCCC | -2.56
in CCCCCCCCC | -2.34
in CCCCCCCCO | -2.32
in CCCCCO | -2.47
in CCCCO | -2.5
in CCCO | -2.54
in CN(C)C=O | -2.74
in CO | -2.63
in Cc1ccc(C)cc1 | -2.83
in Cc1cccc(C)c1 | -2.87
in Cc1ccccc1C | -2.86
in Clc1ccccc1 | -2.96
in N#Cc1ccccc1 | -2.88
in O | -0.63

COc1c(Cl)ccc(Cl)c1C(=O)O
Details | solvation free energy, 298 K [kcal/mol]
in O | -9.86

CCCCCNCc1ccc(C)cc1
Details | solvation free energy, 298 K [kcal/mol]
in O | -5.21

CCCCC(=O)OC
Details | solvation free energy, 298 K [kcal/mol]
in CCCCCC | -4.93
in CCCCCCC | -4.91
in CCCCCCCC | -4.85
in CCCCCCCCCC | -4.75
in CO | -5.33
in O | -2.56

C1COCCOCCOCCOCCO1
Details | solvation free energy, 298 K [kcal/mol]
in Cc1cccc(C)c1 | -10.9
in O | -12.8

Source: the CombiSolv-Exp solvation set (Vermeire and Green 2021)
